Test results: patent publication US7582694B2, “Antimicrobial lubricant for wood fiber-plastic composites” (Lonza, Inc., priority 2002, dated 2009)

How the values were obtained:
T. versicolor = assay: agar plate method, inhibition of fungus growth; type: cell-based; conditions: for percent inhibition (retardation) of the fungal growth, T. versicolor: aqueous solution
Experimental: (§1) The efficacy of aqueous solutions of alkyldimethylbenzyl ammonium lauryl sulfate and didecyldimethyl ammonium lauryl sulfate to inhibit fungus growth was evaluated by the agar plate method known in the art. Also tested were two commercially known biocides: didecyldimethyl ammonium chloride (Bardac® 2080) and alkyldimethylbenzyl ammonium chloride (Barquat® MB-80).
(§2) The test data are reported as a percent inhibition (retardation) of the fungal growth.

C. globosum = assay: agar plate method, inhibition of fungus growth; type: cell-based; conditions: for percent inhibition (retardation) of the fungal growth, C. globosum: aqueous solution
Experimental: as §1, §2

P. placenta = assay: agar plate method, inhibition of fungus growth; type: cell-based; conditions: for percent inhibition (retardation) of the fungal growth, P. placenta: aqueous solution
Experimental: as §1, §2

G. trabeum = assay: agar plate method, inhibition of fungus growth; type: cell-based; conditions: for percent inhibition (retardation) of the fungal growth, G. trabeum: aqueous solution
Experimental: as §1, §2

[1] = tested on: brown-rot fungus G. trabeum; assay: standard soil block test (American Wood Preservation Association E10) on extruded composites; conditions: extruded samples containing the salt vs conventional lubricant control; 22 weeks G. trabeum
Experimental: The efficacy of extruded samples containing alkyldimethylbenzyl ammonium lauryl sulfate or didecyldimethyl ammonium lauryl sulfate to inhibit fungal growth was evaluated by the standard soil block test method (American Wood Preservation Association E10) known in the art. The biocide effectiveness is determined by % weight loss in wood component of the tested samples. The sample blocks (13 mm×14 mm×14 mm) were exposed to the brown-rot fungus G. trabeum for 22 weeks, with four replicates per treatment.

[2] = Trametes versicolor, read-out: percent inhibition (retardation) of the fungal growth, T. versicolor
[3] = Chaetomium globosum, read-out: percent inhibition (retardation) of the fungal growth, C. globosum
[4] = read-out: percent inhibition (retardation) of the fungal growth, P. placenta
[5] = Gloeophyllum trabeum, read-out: percent inhibition (retardation) of the fungal growth, G. trabeum

Molecule | inhibition at 50 ppm (T. versicolor; [2]) [%] | inhibition at 500 ppm (T. versicolor; [2]) [%] | inhibition at 50 ppm (C. globosum; [3]) [%] | inhibition at 500 ppm (C. globosum; [3]) [%] | inhibition at 50 ppm (P. placenta; [4]) [%] | inhibition at 500 ppm (P. placenta; [4]) [%] | inhibition at 50 ppm (G. trabeum; [5]) [%] | inhibition at 500 ppm (G. trabeum; [5]) [%] | weight loss compared with control samples [1] | percent inhibition (retardation) of the fungal growth, T. versicolor (T. versicolor; 50 ppm) [%] | percent inhibition (retardation) of the fungal growth, T. versicolor (T. versicolor; 500 ppm) [%] | percent inhibition (retardation) of the fungal growth, C. globosum (C. globosum; 50 ppm) [%] | percent inhibition (retardation) of the fungal growth, C. globosum (C. globosum; 500 ppm) [%] | percent inhibition (retardation) of the fungal growth, P. placenta (P. placenta; 50 ppm) [%] | percent inhibition (retardation) of the fungal growth, P. placenta (P. placenta; 500 ppm) [%] | percent inhibition (retardation) of the fungal growth, G. trabeum (G. trabeum; 50 ppm) [%] | percent inhibition (retardation) of the fungal growth, G. trabeum (G. trabeum; 500 ppm) [%]
CCCCCCCCCC[N+](C)(C)CCCCCCCCCC [didecyldimethyl ammonium chloride, reference compound] | 36.8 | 80.7 | 68.2 | 74.3 | 88.4 | 89.2 | 78.4 | 82.4 | – | – | – | – | – | – | – | – | –
Didecyldimethyl ammonium lauryl sulfate | – | – | – | – | – | – | – | – | significantly lower weight loss than the control samples | 44.0 | 81.3 | 68.0 | 78.7 | 82.6 | 86.0 | 58.0 | 80.8
alkyldimethylbenzyl ammonium chloride [reference compound] | – | – | – | – | – | – | – | – | – | 55.0 | 85.0 | 63.8 | 81.8 | 86.8 | 87.5 | 82.1 | 89.0
alkyldimethylbenzyl ammonium lauryl sulfate | – | – | – | – | – | – | – | – | significantly lower weight loss than the control samples | 32.2 | 72.9 | 64.5 | 75.6 | 83.0 | 86.6 | 51.7 | 82.3
